The data set concerns GENE-TOX genotoxicity assays, various organisms and cells. As to the kind of experiment: GENE-TOX mutagenicity studies.
Setting [1] is: Species/Cell Type: Salmonella typhimurium (one or more of the five standard strains: TA98, TA100, TA1535, TA1537, and TA1538), Assay Type: Histidine reverse gene mutation, Ames assay, Assay Code: SALT, Evaluation Type: Evaluation A (Pre-1980).
[2] abbreviates: Species/Cell Type: Mammalian polychromatic erythrocytes, Assay Type: Micronucleus test, chromosome aberrations, Assay Code: MNTT, Evaluation Type: Evaluation A (Pre-1980).
The mark [3] stands for this setting: Species/Cell Type: Drosophila melanogaster, Assay Type: Sex-linked recessive lethal gene mutation, Assay Code: SRL+, Evaluation Type: Evaluation A (Pre-1980).
[4] abbreviates: Species/Cell Type: Drosophila melanogaster, Assay Type: Sex-linked recessive lethal gene mutation, Assay Code: SRL-, Evaluation Type: Evaluation A (Pre-1980).
[5] abbreviates: Species/Cell Type: Saccharomyces cerevisiae, Assay Type: Mitotic recombination or gene conversion, Assay Code: YEC+, Evaluation Type: Evaluation A (Pre-1980).
Setting [6] is: Species/Cell Type: Nonhuman, Assay Type: Sister-chromatid exchange (SCE) in vitro, Assay Code: SC2+D, Dose Response: With dose response, Evaluation Type: Evaluation B (Post-1980).
[7] abbreviates: Species/Cell Type: Salmonella typhimurium (one or more of the five standard strains: TA98, TA100, TA1535, TA1537, and TA1538), Assay Type: Histidine reverse gene mutation, Ames assay, Assay Code: SAL-, Evaluation Type: Evaluation A (Pre-1980).

The structures appear in SMILES notation. Active and inactive are the calls of the source. The rule behind the calls is not given here.

As for `O[C@@H]1c2cccc3ccc4cc5ccccc5c(c4c23)[C@@H]1O`, the mutagenic call is “inactive; negative” (Species/Cell Type: Chinese hamster lung (V79) cells, Assay Type: Forward gene mutation at the HPRT or ouabain locus, Assay Code: V79-, Evaluation Type: Evaluation A (Pre-1980)) and “no conclusion” under setting [1].

`O=C(CCl)NCO`: the mutagenic call (Species/Cell Type: Mammalian polychromatic erythrocytes, Assay Type: Micronucleus test, chromosome aberrations, Assay Code: MNT+, Evaluation Type: Evaluation B (Post-1980)) was “active; positive”.

On to `COc1ccc(/C=N/NC(=O)COc2ccc(Br)cc2CN2CCOCC2)cc1`, for which the mutagenic call (Species/Cell Type: Saccharomyces cerevisiae, Assay Type: Reverse gene mutation, Assay Code: YERT, Evaluation Type: Evaluation A (Pre-1980)) was “no conclusion”.

As to `C1CNCCN1`, for the setting “Species/Cell Type: Salmonella typhimurium, Assay Type: Forward and reverse gene mutation, host-mediated assay, Assay Code: HMA+, Evaluation Type: Evaluation A (Pre-1980)”, the mutagenic call is “active; positive”. For the compound `CC(C)[N+](=O)[O-]`, under setting [2], the mutagenic call is given as “no conclusion”. Moreover, the call (Species/Cell Type: Nonhuman, Assay Type: In vivo carcinogenicity studies, Assay Code: CCG+, Evaluation Type: Evaluation A (Pre-1980)) is “active; positive”. As for `C/C=C(/C)C(=O)O[C@@H]1CCN2CC=C(COC(=O)[C@@](O)([C@H](C)O)C(C)(C)O)[C@H]12`, the mutagenic call under setting [3] was “active; positive”.

Consider `C=CCN=C=S`, for which the mutagenic call under setting [3] was “active; positive” and the mutagenic call under setting [4] is “inactive; negative”.

Turning to `CN(N=O)C(=O)Nc1nc2ccccc2s1`, the mutagenic call is, setting by setting: (Species/Cell Type: Neurospora crassa, Assay Type: Forward gene mutation, Assay Code: NEF+, Evaluation Type: Evaluation A (Pre-1980)) “active; positive”; under setting [5], “active; positive”. Regarding `[CH3][Hg][O]C(C)=O`, the mutagenic call is, setting by setting: under setting [2], “no conclusion”; (Species/Cell Type: Mouse, Sex: Male, Assay Type: Sperm morphology, Assay Code: SPI-, Evaluation Type: Evaluation A (Pre-1980)) “inactive; negative”.

As to `C/C=C/C=C/C(=O)O`, where the note is “Species/Cell Type: Nonhuman, Assay Type: Sister-chromatid exchange (SCE) in vitro, Assay Code: SC2T, Evaluation Type: Evaluation A (Pre-1980)”, the mutagenic call is “no conclusion”. For `NC[C@H]1O[C@H](O[C@H]2[C@H](O[C@@H]3O[C@H](CO)[C@@H](O)[C@H]3O)[C@@H](O)[C@H](N)C[C@@H]2N)[C@H](N)[C@@H](O)[C@@H]1O`, the mutagenic call (Species/Cell Type: Saccharomyces cerevisiae, Assay Type: Mitotic recombination or gene conversion, Assay Code: YEH-, Evaluation Type: Evaluation A (Pre-1980)) was “inactive; negative”. In the case of `CN(C)N=Nc1c(Br)cc(Br)cc1Br`, the mutagenic call reads like this: under setting [3], “active; positive”; under setting [5], “active; positive”. Regarding `C1=CC[C@@H](c2cccnc2)NC1`, the mutagenic call under setting [6] was “active; positive”. Regarding `OCC(S)CS` (configuration not stated), under “Species/Cell Type: Escherichia coli polA (W3119 vs P3478), Assay Type: Rec-assay, DNA effects (bacterial DNA repair), Assay Code: RE1-, Evaluation Type: Evaluation A (Pre-1980)”, the mutagenic call was “inactive; negative”. Consider `C/C(O)=C1/C(=O)[C@@H]2[C@H]3c4c[nH]c5cccc(c45)C[C@H]3C(C)(C)N2C1=O`, for which the mutagenic call under setting [1] is “no conclusion”. On to `CCCCO`, for which the mutagenic call is, setting by setting: (Species/Cell Type: Nonhuman, Assay Type: Sister-chromatid exchange (SCE) in vitro, Assay Code: SC2-, Evaluation Type: Evaluation A (Pre-1980)) “inactive; negative”; under setting [7], “inactive; negative”. `Cc1c(C(=O)O)c(O)cc2c1C(=O)c1c(O)c([C@@H]3O[C@@H](CO)[C@H](O)[C@@H](O)[C@H]3O)c(O)c(O)c1C2=O`: the mutagenic call reads like this: (Species/Cell Type: Bacillus subtilis (H17 vs M45), Assay Type: Rec-assay, spot test, DNA effects (bacterial DNA repair), Assay Code: REWT, Evaluation Type: Evaluation A (Pre-1980)) “no conclusion”; (Species/Cell Type: Bacillus subtilis (H17 vs M45T), Assay Type: Rec-assay, spot test, DNA effects (bacterial DNA repair), Assay Code: REXT, Evaluation Type: Evaluation A (Pre-1980)) “no conclusion”.

On to `CC#CC(OC(=O)NC1CCCCC1)(c1ccccc1)c1ccccc1`, for which the mutagenic call (Species/Cell Type: Salmonella typhimurium (one or more of the five standard strains: TA98, TA100, TA1535, TA1537, and TA1538), Assay Type: Histidine reverse gene mutation, Ames assay, Assay Code: SAL+, Evaluation Type: Evaluation A (Pre-1980)) is “active; positive”. Take `CCCCCCCC(=O)OCC(COC(=O)CCCCCCC)OC(=O)CCCCCCC`: the mutagenic call (Species/Cell Type: Mouse, Sex: Female, Assay Type: Spot test, gene mutation, Assay Code: MSTT, Evaluation Type: Evaluation A (Pre-1980)) is reported as “no conclusion”.

On to `CC#CC#CC#Cc1ccccc1`, for which the mutagenic call (Species/Cell Type: Nonhuman, Assay Type: Sister-chromatid exchange (SCE) in vitro, Assay Code: SC2T, Evaluation Type: Evaluation B (Post-1980)) is given as “no conclusion”. For the compound `COC(=O)COc1ccc(Cl)cc1C`, the mutagenic call (Species/Cell Type: Saccharomyces cerevisiae, Assay Type: Reverse gene mutation, Assay Code: YER+, Evaluation Type: Evaluation A (Pre-1980)) was “active; positive”. For `CCC1(c2ccc(O)cc2)OC1(CC)c1ccc(O)cc1` (configuration not stated), the mutagenic call (Species/Cell Type: Human, Assay Type: Sister-chromatid exchange (SCE) in vitro, Assay Code: SC1+D, Dose Response: With dose response, Evaluation Type: Evaluation B (Post-1980)) was “active; positive”. Take `[O-][Cl+]O`: the mutagenic call (Species/Cell Type: Mammalian polychromatic erythrocytes, Assay Type: Micronucleus test, chromosome aberrations, Assay Code: MNTT, Evaluation Type: Evaluation B (Post-1980)) is on record as “no conclusion”. With `CCOc1ccc2c(c1)C(C)=CC(C)(C)N2`, the mutagenic call is, setting by setting: under setting [4], “inactive; negative”; under setting [7], “inactive; negative”. With `CCCCCc1cc(O)c2c(c1)OC(C)(C)[C@@H]1CC=C(C)C[C@@H]21`, the mutagenic call is “inactive; negative” (Species/Cell Type: Fischer rat embryo (RLV/1706) cells, Assay Type: Cell transformation, viral enhanced, Assay Code: CTR-, Evaluation Type: Evaluation A (Pre-1980)) and “active; positive” (Species/Cell Type: Human lymphocytes, Assay Type: Micronucleus test in vitro, chromosome aberrations, Assay Code: MN7+, Evaluation Type: Evaluation A (Pre-1980)). Turning to `Oc1ccc2cccnc2c1`, the mutagenic call under setting [7] was “inactive; negative”. On to `CN(C)CCN(Cc1cccs1)c1ccccn1`, for which the mutagenic call (Species/Cell Type: Chinese hamster ovary (CHO) cells, Assay Type: Forward gene mutation at the HPRT locus, Assay Code: CHOT, Evaluation Type: Evaluation B (Post-1980)) is “no conclusion”; the mutagenic call (Species/Cell Type: Nonhuman, Assay Type: Sister-chromatid exchange (SCE) in vitro, Assay Code: SC2-, Evaluation Type: Evaluation B (Post-1980)) was “inactive; negative”; the mutagenic call (Species/Cell Type: Nonhuman, Assay Type: Sister-chromatid exchange (SCE) in vivo, Assay Code: SC3-, Evaluation Type: Evaluation B (Post-1980)) is “inactive; negative”. Take `[Zn]`: where the note is “Species/Cell Type: Human lymphocytes or leukocytes, Assay Type: Chromosome aberrations in vivo, Assay Code: CY8T, Evaluation Type: Evaluation A (Pre-1980)”, the mutagenic call is reported as “no conclusion”.

Consider `CC(=O)C(NC(=O)C(C)C(O)C(C)NC(=O)C(NC(=O)c1nc(C(CC(N)=O)NCC(N)C(N)=O)nc(N)c1C)C(O[C@@H]1O[C@@H](CO)[C@@H](O)[C@H](O)[C@]1(C)O[C@@H]1OC(CO)[C@H](O)[C@](O)(C(N)=O)[C@H]1O)c1cnc[nH]1)C(=O)NCCC1=NC(c2nc(C(N)=O)cs2)CS1` (some centres not stated), for which the mutagenic call (Species/Cell Type: Mammalian oocytes or early embryo, Assay Type: Chromosome aberrations in vivo, Assay Code: CYO+, Evaluation Type: Evaluation A (Pre-1980)) was “active; positive” and the mutagenic call (Species/Cell Type: Vicia faba, Assay Type: Chromosome aberrations, Assay Code: VIC+D, Dose Response: With dose response, Evaluation Type: Evaluation A (Pre-1980)) was “active; positive”. As for `Cc1ccc(S(=O)(=O)N(C)N=O)cc1`, the mutagenic call (Species/Cell Type: Arabidopsis species, Assay Type: Gene mutation, Assay Code: ARM+, Evaluation Type: Evaluation A (Pre-1980)) is “active; positive”. Take `COC1=C(OC)C(=O)C(C/C=C(\C)CC/C=C(\C)CC/C=C(\C)CC/C=C(\C)CC/C=C(\C)CC/C=C(\C)CCC=C(C)C)=C(C)C1=O`: where the note is “Species/Cell Type: Human, Sex: Male, Assay Type: Sperm morphology, Assay Code: SPHT, Evaluation Type: Evaluation A (Pre-1980)”, the mutagenic call is listed as “no conclusion”. `CN(C)CCc1c[nH]c2cccc(OP(=O)(O)O)c12`: the mutagenic call under setting [2] was “no conclusion”. Regarding `COP(=O)(OC)O/C(C)=C/C(=O)N(C)C`, the mutagenic call runs as follows: under setting [6], “active; positive”; under setting [5], “active; positive”.

Values taken from PubChem BioAssay AID1259408 (Genetic Toxicology Data Bank (GENE-TOX), 2018).
